The target of the first assay is T1, STAT6 (Homo sapiens, UniProt P42226).
T1 construct: stably transfected HaCaT keratinocyte cell line, which expresses NanoLuc luciferase reporter gene under the transcriptional control of the STAT6 responsive promoter; endogenous in cells; host or cells: HaCaT keratinocyte reporter cell line (stably transfected with a NanoLuc reporter)
T1 sequence (P42226 1-847): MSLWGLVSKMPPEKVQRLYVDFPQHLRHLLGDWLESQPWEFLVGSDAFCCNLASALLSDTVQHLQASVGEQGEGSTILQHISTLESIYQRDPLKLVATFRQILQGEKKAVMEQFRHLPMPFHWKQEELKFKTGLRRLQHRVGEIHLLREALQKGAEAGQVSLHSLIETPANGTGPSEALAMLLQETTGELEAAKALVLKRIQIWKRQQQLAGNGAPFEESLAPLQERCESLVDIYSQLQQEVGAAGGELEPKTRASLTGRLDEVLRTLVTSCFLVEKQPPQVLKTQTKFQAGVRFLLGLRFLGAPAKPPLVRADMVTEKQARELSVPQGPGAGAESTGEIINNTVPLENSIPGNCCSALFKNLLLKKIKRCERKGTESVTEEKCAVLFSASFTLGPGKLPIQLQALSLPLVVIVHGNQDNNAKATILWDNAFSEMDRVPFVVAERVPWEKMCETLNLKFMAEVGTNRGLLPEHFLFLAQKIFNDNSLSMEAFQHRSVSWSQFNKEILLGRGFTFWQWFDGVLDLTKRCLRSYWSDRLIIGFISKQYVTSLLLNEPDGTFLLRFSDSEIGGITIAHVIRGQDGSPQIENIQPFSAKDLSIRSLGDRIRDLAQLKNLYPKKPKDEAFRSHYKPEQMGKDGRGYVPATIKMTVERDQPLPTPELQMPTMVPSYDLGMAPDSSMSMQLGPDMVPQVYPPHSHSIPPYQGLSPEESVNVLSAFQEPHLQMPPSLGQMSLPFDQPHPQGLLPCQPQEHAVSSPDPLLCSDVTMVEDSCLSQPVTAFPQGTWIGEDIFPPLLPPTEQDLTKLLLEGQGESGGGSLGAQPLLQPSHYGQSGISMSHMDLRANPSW
Put plainly: STAT6 Reporter Luciferase Assay (IL-13 stimulated HaCaT keratinocyte NanoLuc reporter cells). The class given is cell-based. The settings on record: IL-13 stimulated HaCaT STAT6 NanoLuc reporter cells; read-out: Reporter EC50. Here is the method:
Pharmacological measurements of STAT6 transcriptional activity through the IL-13-IL-13 receptor/IL-4 receptor pathway were made with a stably transfected HaCaT keratinocyte cell line, which expresses NanoLuc luciferase reporter gene under the transcriptional control of the STAT6 responsive promoter for IL-13Ra2. The readout of the STAT6 activity utilized Promega Nano-Glo Luciferase assay kit.
The reporter cells were cultured in a growth media comprised of DMEM High Glucose, no calcium and no glutamine, 10% heat inactivated fetal bovine serum (HI FBS), 1% 100× Glutamax, and 100 U/mL Penicillin-Streptomycin (units of penicillin in 1 mL of streptomycin). Seven thousand cells were plated in 25 microliter (μL) per well in a 384-well, white bottom, tissue culture plate. Cells were cultured overnight at 37° C. The next day, test compounds (solubilized and serially diluted in DMSO, in an 11 point, 4-fold dilution series in duplicate) were spotted, 60 nanoliters (nL) per well, into a 384 well v-bottom polypropylene plate. Thirty μL per well of 37° C. dosing media (Dulbecco's modified eagle medium (DMEM) High Glucose, no calcium and no glutamine with 2% HI FBS) was added to the compound plate. Growth media was removed from the cell plate, and the cells were washed with DPBS. Twenty μL per well of compounds diluted in dosing media were transferred from the compound plate to the cell plate and the compounds were further diluted with an additional 15 μL of dosing media in the cell plate: the cell plate was incubated for two hours at 37° C. After two hours, STAT6 activity was stimulated with the addition of 5 μL per well of IL-13 (R&D Systems) in dosing media with a final concentration of 0.12 nM IL13. Cells were incubated at 37° C. for 4 hours to allow for reporter gene expression, then all media was removed from the plate. The cell plates were treated with assay buffer and Luciferase substrate from Nano-Glo Luciferase Assay Kit for 15 min and then measured for luminescence on an EnVision 2105 multilabel reader (PerkinElmer).
Regarding `COCC1CCN(C(=O)c2ccc(N3CCc4c(c(C(=O)NCc5ccc(NC(=O)N(C)C)cc5)nn4C(C)C)C3)nc2)C1` (racemic) [Example 194, rac-(R)-N-(4-(3,3-dimethylureido)benzyl)-1-isopropyl-5-(5-(3-(methoxymethyl)pyrrolidine-1-carbonyl)pyridin-2-yl)-4,5,6,7-tetrahydro-1H-pyrazolo[4,3-c]pyridine-3-carboxamide], the EC50 is 401 nM.
For `CC(C)n1nc(C(=O)NCc2ccc(NC(=O)N(C)C)cc2)c2c1CCN(c1ccc(C(=O)N3CCC(O)C3)cn1)C2` (racemic) [Example 198, rac-(R)-N-(4-(3,3-dimethylureido)benzyl)-5-(5-(3-hydroxypyrrolidine-1-carbonyl)pyridin-2-yl)-1-isopropyl-4,5,6,7-tetrahydro-1H-pyrazolo[4,3-c]pyridine-3-carboxamide], the EC50 was 210 nM.
Same read-out and setting: with `CC(C)n1nc(C(=O)NCc2ccc(NC(=O)N(C)C)cc2)c2c1CCN(c1ccc(C(=O)N3CCCC3CO)cn1)C2` (racemic) [Example 208, rac-(R)-N-(4-(3,3-dimethylureido)benzyl)-5-(5-(2-(hydroxymethyl)pyrrolidine-1-carbonyl)pyridin-2-yl)-1-isopropyl-4,5,6,7-tetrahydro-1H-pyrazolo[4,3-c]pyridine-3-carboxamide] the figure was 535 nM; with `CC(C)n1nc(C(=O)NCc2ccc(NC(=O)N(C)C)cc2)c2c1CCN(c1ccc(C(=O)N3CCC(C)(O)C3)cn1)C2` (racemic) [Example 219, rac-(R)-N-(4-(3,3-dimethylureido)benzyl)-5-(5-(3-hydroxy-3-methylpyrrolidine-1-carbonyl)pyridin-2-yl)-1-isopropyl-4,5,6,7-tetrahydro-1H-pyrazolo[4,3-c]pyridine-3-carboxamide], 1310 nM.
With `CC(C)n1nc(C(=O)NCc2ccc(NC(=O)N(C)C)cc2)c2c1CCN(c1ccc(C(=O)N3CCCC(O)C3)cn1)C2` (racemic) [Example 220, rac-(R)-N-(4-(3,3-dimethylureido)benzyl)-5-(5-(3-hydroxypiperidine-1-carbonyl)pyridin-2-yl)-1-isopropyl-4,5,6,7-tetrahydro-1H-pyrazolo[4,3-c]pyridine-3-carboxamide], the half-maximal effective concentration (EC50) amounted to 336 nM.
The same measure, in the same setting: with `CNC(=O)C1CCCN1C(=O)c1ccc(N2CCc3c(c(C(=O)NCc4ccc(NC(=O)N(C)C)cc4)nn3C(C)C)C2)nc1` (racemic) [Example 245, rac-(R)-N-(4-(3,3-dimethylureido)benzyl)-1-isopropyl-5-(5-(2-(methylcarbamoyl)pyrrolidine-1-carbonyl)pyridin-2-yl)-4,5,6,7-tetrahydro-1H-pyrazolo[4,3-c]pyridine-3-carboxamide] the figure was 2090 nM; with `CC(C)n1nc(C(=O)NCc2ccc(NC(=O)N(C)C)cc2)c2c1CCN(c1ccc(C(=O)N3C[C@@H]4OC(=O)N[C@@H]4C3)cn1)C2` (racemic) [Example 290, rac-N-(4-(3,3-dimethylureido)benzyl)-1-isopropyl-5-(5-((3aR,6aS)-2-oxohexahydro-2H-pyrrolo[3,4-d]oxazole-5-carbonyl)pyridin-2-yl)-4,5,6,7-tetrahydro-1H-pyrazolo[4,3-c]pyridine-3-carboxamide], 1410 nM.
On the same count and under the same terms, the figure for `CC(C)n1nc(C(=O)NCc2ccc(NC(=O)N(C)C)cc2)c2c1CCN(c1ccc(C(=O)N3C[C@H]4CCO[C@H]4C3)cn1)C2` (racemic) [Example 331, rac-N-(4-(3,3-dimethylureido)benzyl)-5-(5-((3aR,6aR)-hexahydro-2H-furo[2,3-c]pyrrole-5-carbonyl)pyridin-2-yl)-1-isopropyl-4,5,6,7-tetrahydro-1H-pyrazolo[4,3-c]pyridine-3-carboxamide] is 606 nM.
`CO[C@@H]1CN(C(=O)c2ccc(N3CCc4c(c(C(=O)NCc5ccc(NC(=O)N(C)C)cc5)nn4C(C)C)C3)nc2)C[C@H]1OC` (racemic) [Example 333, rac-5-(5-((3R,4R)-3,4-dimethoxypyrrolidine-1-carbonyl)pyridin-2-yl)-N-(4-(3,3-dimethylureido)benzyl)-1-isopropyl-4,5,6,7-tetrahydro-1H-pyrazolo[4,3-c]pyridine-3-carboxamide]: the concentration for a half-maximal effect (EC50) came to 2800 nM.
Same read-out and setting: the figure for `CC(C)n1nc(C(=O)NCc2ccc(NC(=O)N(C)C)cc2)c2c1CCN(c1ccc(C(=O)N3C[C@@H]4OC(=O)N(C)[C@@H]4C3)cn1)C2` (racemic) [Example 334, rac-N-(4-(3,3-dimethylureido)benzyl)-1-isopropyl-5-(5-((3aR,6aS)-3-methyl-2-oxohexahydro-2H-pyrrolo[3,4-d]oxazole-5-carbonyl)pyridin-2-yl)-4,5,6,7-tetrahydro-1H-pyrazolo[4,3-c]pyridine-3-carboxamide] is 176 nM.
The same measure, in the same setting: the figure for `CC(C)n1nc(C(=O)NCc2ccc(NC(=O)N3CCN(C)CC3)cc2)c2c1C(C(F)(F)F)CN(c1ccc(C(=O)N(C)C)cn1)C2` (racemic) [Example 701, rac-(R)-5-(5-(dimethylcarbamoyl)pyridin-2-yl)-1-isopropyl-N-(4-(4-methylpiperazine-1-carboxamido)benzyl)-7-(trifluoromethyl)-4,5,6,7-tetrahydro-1H-pyrazolo[4,3-c]pyridine-3-carboxamide] is 0.4 nM.
In the case of `CC(C)n1nc(C(=O)NCc2ccc(NC(=O)N3CCN(C)CC3)cc2)c2c1C(C(F)(F)F)CN(c1ccc(C(=O)N(C)C)cc1)C2` (racemic) [Example 703, rac-(R)-5-(4-(dimethylcarbamoyl)phenyl)-1-isopropyl-N-(4-(4-methylpiperazine-1-carboxamido)benzyl)-7-(trifluoromethyl)-4,5,6,7-tetrahydro-1H-pyrazolo[4,3-c]pyridine-3-carboxamide], the EC50 came out at 1 nM.
For the compound `CC(C)n1nc(C(=O)NCc2ccc(NC(=O)N3CCNCC3)cc2)c2c1C(C(F)(F)F)CN(c1ccc(C(=O)N(C)C)cc1)C2` (racemic) [Example 704, rac-(R)-5-(4-(dimethylcarbamoyl)phenyl)-1-isopropyl-N-(4-(piperazine-1-carboxamido)benzyl)-7-(trifluoromethyl)-4,5,6,7-tetrahydro-1H-pyrazolo[4,3-c]pyridine-3-carboxamide], the concentration giving a half-maximal response (EC50) turned out to be 1 nM.

Staying with this assay, now noted: STAT6 NanoLuc luciferase reporter, IL-13 stimulated HaCaT keratinocyte cells; read-out: Reporter EC50.
For `CC(C)n1nc(C(=O)NCc2ccc(NC(=O)N3C[C@H]4CC[C@@H]3C4)cc2)c2c1CCN(c1ccc(C(=O)N(C)C)cn1)C2` (racemic) [Example 143, rac-N-(4-((1R,4S)-2-azabicyclo[2.2.1]heptane-2-carboxamido)benzyl)-5-(5-(dimethylcarbamoyl)pyridin-2-yl)-1-isopropyl-4,5,6,7-tetrahydro-1H-pyrazolo[4,3-c]pyridine-3-carboxamide], the EC50 worked out at 11 nM.
For the compound `CC(C)n1nc(C(=O)NCc2ccc(NC(=O)N3CCC(C(F)F)C3)cc2)c2c1CCN(c1ccc(C(=O)N(C)C)cn1)C2` (racemic) [Example 145, rac-(R)-N-(4-(3-(difluoromethyl)pyrrolidine-1-carboxamido)benzyl)-5-(5-(dimethylcarbamoyl)pyridin-2-yl)-1-isopropyl-4,5,6,7-tetrahydro-1H-pyrazolo[4,3-c]pyridine-3-carboxamide], the EC50 came to 6 nM.

These data come from patent publication US20250320213A1, “Nitrogen-Containing Heterocyclic Compounds” (Pfizer Inc., priority 2024, published 2025).
